# Tested on: Mugil cephalus
# Test: Ovum maturation (vitellogenesis) of Mugil cephalus after implantation of sustained-release capsules
# Assay type: in vivo
# Conditions: M. cephalus, implanted in May, diameter in October; preparation 400 μg, estradiol 1000 μg; FIG. 3
# Excerpt: Additionally, a method for inducing vitellogenesis in fish can also be developed, by implanting the preparation of the present invention into body cavity or body wall of bony fish, for example in lateral muscle or abdomen cavity, in order to inducing the sexual maturation and vitellogenesis in the bony fish. With reference to FIG. 1, the preparation of the present invention is preferably implanted into lateral muscle adjacent to dorsal fin 21 of a bony fish 2 by an injector 1 in the present embodiment. Accordingly, the decapeptide in the preparation can be sustaining released into the bony fish for long-term inducing the hypophysis to synthesize and secrete gonadotropin (GtH) so that the vitellogenesis and breeding of the bony fish can be achieved.
# Referring to FIG. 3, the responses of Mugil cephalus on decapeptide-induction are shown. In the present embodiment, several farming M. cephalus, are prepared and randomly assigned into five groups including (b1), (b2) ovaprin group, (b3) estradiol group, (b4) MixT group and (b5) control group. […] Moreover, ova of each group of M. cephalus are collected and analyzed monthly after implantation for monitoring the vitellogenesis in each group of M. cephalus. The ovum maturation of each group of M. cephalus is also determined in accordance with the size and accumulation of the ovum.
smiles,measurement,value
C[C@]12CC[C@@H]3c4ccc(O)cc4CC[C@H]3[C@@H]1CC[C@@H]2O [estradiol],oocyte diameter,about 380 μm

# Reference: US8536124B2, “Artificial decapeptide for inducing vitellogenesis in fish” (National Pingtung University of Science & Technology, priority 2010, dated 2013)
